Results: PMC5784132, “Investigation of 20S-hydroxyvitamin D3 analogs and their 1α-OH derivatives as potent vitamin D receptor agonists with anti-inflammatory activities” (Scientific Reports, 2018)

Experiments:
IFNγ production = experiment: IFNγ inhibition assay in anti-CD3 activated splenocytes; conditions: for activity at 0.1 µM: Mus musculus, Splenocyte, 72 h, read-out: IFNγ (ratio ± SD)
Method: To test whether the 20S(OH)D3 analogs also show anti-inflammatory properties, the inhibition of IFNγ production was performed using our established assay[1],[4],[23]. […] Secosteroids were solubilized in absolute EtOH at 10^−4 M and diluted to 10^−6 M by adding Eagles Minimal Essential Medium (EMEM) containing 9% charcoal-stripped fetal calf serum, 100 U/mL penicillin and 100 µg/mL streptomycin, non-essential amino acids, 2.5 mM 2-mercaptoethanol, 2.5 mM L-glutamine[16]. Splenocytes from mice were isolated, erythrocytes lysed by hypotonic shock, washed twice with EMEM, and suspended at a concentration for 2 × 10^6 cells/mL in EMEM as described above. To each well in a 48-well tissue culture plate, 450 µL of the splenocytes were added. Secosteroids (50 µL of the 10^−6 M stock) or EtOH diluted 1:100 with the above culture medium were added to triplicate wells and then incubated at 37 °C in 5% CO2 in a humidified tissue culture incubator for 2 h, after which 1 µg/well of rat anti-mouse CD3 MOAB was added. After 72 h culture, supernatants from each well were harvested and analyzed by ELISA for levels of D-murine IFNγ (RAD Systems, Minneapolis, MN, USA), according to the manufacturer’s instructions. The concentration of IFNγ is supernatants from cultures containing secosteroids were compared to the concentration of IFNγ in the supernatants of EtOH-treated control cultures, by ANOVA.

CYP24A1 gene expression = experiment: RT-PCR analysis of CYP24A1 expression in HaCaT cells; type: cell-based; conditions: Homo sapiens, 100 nM, 24 h treatment, read-out: relative mRNA level for CYP24A1 versus vehicle control
Method: Figure 7 20S(OH)D3 analogs upregulate the expression of CYP24A1 encoding the vitamin D catabolic enzyme, CYP24A1, with varying efficiencies. […] The mRNA was isolated and the RT-PCR was performed using specific primers for the CYP24A1 gene (see Methods). Data are presented as mean ± SE (n = 3). *p < 0.05, **p < 0.01 and ***p < 0.001 compared with the control.
HaCaT cells were purchased from Thermo Fisher Scientific (Waltham, MA, USA) and were cultured as for the VDRE reporter assay. The RNA from HaCaT keratinocytes treated with secosteroids or from DMSO controls was isolated using the Absolutely RNA Miniprep Kit (Stratagene, La Jolla, CA, USA). Reverse transcription (100 ng RNA/reaction) was performed with the Transcriptor First Strand cDNA Synthesis Kit (Roche Inc., Mannheim, Germany). Real-time PCR was performed using cDNA diluted 10-fold in sterile water and a SYBR Green PCR Master Mix. The primers for both forward and reverse strands for CYP24A1 were designed based on the mouse and rat sequences using Primer Quest software ([…], San Jose, CA, USA). Reactions (in triplicate) were performed at 50 °C for 2 min, 95 °C for 10 min and then 40 cycles of 95 °C for 15 s, 60 °C for 30 s and 72 °C for 30 s. Data were collected and analyzed on a Roche Light Cycler 480. The amount of the final amplified product for each gene was compared and normalized to the amount of β-actin product as a housekeeping gene using a comparative Ct method.

rat CYP24A1 = biological target: T1, rat CYP24A1 (Rattus norvegicus, UniProt Q09128); experiment: Time courses and product profiles for metabolism of analogs by rat CYP24A1; type: in vitro ADME
T1 construct: made in house; host or cells: E. coli
T1 sequence (Q09128 36-514): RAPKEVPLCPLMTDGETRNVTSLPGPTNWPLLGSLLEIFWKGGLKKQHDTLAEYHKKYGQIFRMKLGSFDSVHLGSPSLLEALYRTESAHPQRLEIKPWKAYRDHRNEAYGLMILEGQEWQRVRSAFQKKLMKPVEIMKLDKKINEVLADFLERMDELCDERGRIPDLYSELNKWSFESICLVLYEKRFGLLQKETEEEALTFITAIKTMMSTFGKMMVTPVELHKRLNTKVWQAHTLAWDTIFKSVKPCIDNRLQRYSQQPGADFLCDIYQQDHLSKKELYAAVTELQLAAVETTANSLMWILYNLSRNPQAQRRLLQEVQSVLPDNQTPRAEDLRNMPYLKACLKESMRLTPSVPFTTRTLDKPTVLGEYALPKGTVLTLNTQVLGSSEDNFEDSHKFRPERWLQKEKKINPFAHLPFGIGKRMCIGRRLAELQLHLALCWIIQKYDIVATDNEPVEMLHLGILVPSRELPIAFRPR
From the text: These were identified from authentic standards as 20S,25(OH)2D3, and the two C24 diastereomers of 20S,24(OH)2D3[23],[27]. One of the C24 diastereomers, 20S,24 R(OH)2D3 is the major product and accounts for almost 70% of the total products. […] There were two major products formed from this analog, RT27 and RT30 (indicated by arrows), which accounted for approximately 20% and 30% of the total products, respectively. Compound 23 (Fig. S1E) was converted to at least 6 different products by the incubation with CYP24A1. In contrast, 13 tested under identical conditions generated only one major product with a retention time of 20 min (RT20) and three minor products (Fig. S1D). By 10 min of incubation, almost all of 13 had been metabolized by CYP24A1.
The activity of CYP24A1 with the different analogs was determined as a function of time to determine the initial linear region that could be used for kinetic studies, and to determine any differences in the pattern between analogs. […] The major product of 13 (Fig. S1C, RT20), accounted for 71% of the total secosteroids (products and substrate) at one min and by 20 min it was 95% of all secosteroids. The time course for 20S(OH)D3 in comparison to 4 and 33, reached maximum product formation early in the incubation, with the amount of product at the end of the incubation being only 2.2-fold higher than at one min. By 20 min, less than 15% of the 20S(OH)D3 had been metabolized. […] While initially being metabolized at the lowest rate of any of the analogs, 33 maintained its initial rate longer with more product being present at the end of the 20 min incubation than for any of the other analogs except 13 (Fig. 6).
Figure 6 Time courses for metabolism of 20S(OH)D3 analogs in phospholipid vesicles by rat CYP24A1. 20S(OH)D3, 4, 13, 23 and 33 were incorporated into phospholipid vesicles at a ratio of 0.018 mol/mol phospholipid and incubated with 0.14 µM rat CYP24A1 at 37 °C. Products were analyzed by HPLC.
Rat CYP24A1, mouse CYP27B1 and adrenodoxin and human adrenodoxin reductase were expressed in E. coli and purified as described before[28],[30],[35]. […] Samples from incubations with CYP24A1 were extracted with dichloromethane and analysed by HPLC using a 25 cm Grace Alltima C18 column, as before[27],[28]. […] Products from incubations with CYP27B1 were similarly extracted with dichloromethane and analyzed by reverse phase HPLC using a 15 cm Grace Smart C18 column and an acetonitrile in water gradient (10 min 45% to 100% acetonitrile then 20 min at 100% acetonitrile, at 0.5 mL/min).
Supplementary Fig. S1. […] Samples were analyzed by reverse-phase HPLC using an acetonitrile in water gradient as described in the Methods. […]

| SMILES | decrease of IFNγ production level (IFNγ production; 100 nM) [%] | activity at 0.1 µM (IFNγ production) [%] | fold induction at 0.1 µM (CYP24A1 gene expression) | amount of product at end of incubation relative to one min (rat CYP24A1; 20 min incubation versus one min) [fold] | substrate metabolized by CYP24A1 (rat CYP24A1; by 20 min) | substrate metabolized by CYP24A1 (rat CYP24A1; by 10 min of incubation) | metabolism by CYP24A1 relative to 20S(OH)D3 (rat CYP24A1; by 20 min, fold greater than 20S(OH)D3) [fold] |
| --- | --- | --- | --- | --- | --- | --- | --- |
| C=C1CC[C@H](O)C/C1=C/C=C1\CCC[C@@]2(C)[C@H]1CC[C@@H]2[C@@](C)(O)CCCC(C)C [20S(OH)D3, 20S-hydroxyvitamin D3] | 48 | 51.7 ± 4.6 | 4.4 | 2.2 | less than 15% | – | – |
| C=C1CC[C@H](O)C/C1=C/C=C1\CCC[C@@]2(C)[C@H]1CC[C@@H]2[C@@](C)(O)CCOC(C)C [compound 13] | – | 82.4 ± 3.1 | 0.8 | – | – | almost all | 6 |
